One assay has as its target human CB1 receptors (Homo sapiens (Human), UniProt P21554). Briefly: cAMP assay, CHO cells expressing human CB1 receptors. Particulars: CHO cells expressing human CB1, cAMP; read-out: human CB1 EC50. The format is cell-based. The method, then:
(§1) CHO cells expressing human CB1 or CB2 receptors are seeded 17-24 hours prior to the experiment 50.000 cells per well in a black 96 well plate with flat clear bottom (Corning Costar #3904) in DMEM (Invitrogen No. 31331), 1×HT supplement, with 10% fetal calf serum and incubated at 5% CO2 and 37° C. in a humidified incubator. The growth medium was exchanged with Krebs Ringer Bicarbonate buffer with 1 mM IBMX and incubated at 30° C. for 30 min Compounds were added to a final assay volume of 100 μl and incubated for 30 min at 30° C. Using the cAMP-Nano-TRF detection kit the assay (Roche Diagnostics) was stopped by the addition of 50 μl lysis reagent (Tris, NaCl, 1.5% Triton X100, 2.5% NP40, 10% NaN3) and 50 μl detection solutions (20 μM mAb Alexa700-cAMP 1:1, and 48 μM Ruthenium-2-AHA-cAMP) and shaken for 2 h at room temperature. The time-resolved energy transfer is measured by a TRF reader (Evotec Technologies GmbH), equipped with a ND:YAG laser as excitation source. The plate is measured twice with the excitation at 355 nm and at the emission with a delay of 100 ns and a gate of 100 ns, total exposure time 10 s at 730 (bandwidth 30 nm) or 645 nm (bandwidth 75 nm), respectively. The FRET signal is calculated as follows: FRET=T730-Alexa730-P(T645-B645) with P═Ru730-B730/Ru645-B645, where T730 is the test well measured at […], T645 is the test well measured at 645 nm, B730 and B645 are the buffer controls at 730 nm and 645 nm, respectively. cAMP content is determined from the function of a standard curve spanning from 10 μM to 0.13 nM cAMP.
(§2) EC50 values were determined using Activity Base analysis (ID Business Solution, Limited). The EC50 values for a wide range of cannabinoid agonists generated from this assay for reference compounds were in agreement with the values published in the scientific literature.
On the technique in general: Cyclic AMP is a second messenger, typically raised through Gs and lowered through Gi signalling.

Another assay deals with human CB2 receptors (Homo sapiens (Human), UniProt P34972). As to the kind of experiment: cAMP assay, CHO cells expressing human CB2 receptors. Type of assay: cell-based. Particulars: CHO cells expressing human CB2, cAMP; read-out: human CB2 EC50. The procedure:
as §1, §2

For 23 compounds, EC50 results are on record in US9290451B2 (Hoffmann-La Roche Inc., priority 2011, dated 2016).

Sequence of human CB2 receptors (P34972 whole entry): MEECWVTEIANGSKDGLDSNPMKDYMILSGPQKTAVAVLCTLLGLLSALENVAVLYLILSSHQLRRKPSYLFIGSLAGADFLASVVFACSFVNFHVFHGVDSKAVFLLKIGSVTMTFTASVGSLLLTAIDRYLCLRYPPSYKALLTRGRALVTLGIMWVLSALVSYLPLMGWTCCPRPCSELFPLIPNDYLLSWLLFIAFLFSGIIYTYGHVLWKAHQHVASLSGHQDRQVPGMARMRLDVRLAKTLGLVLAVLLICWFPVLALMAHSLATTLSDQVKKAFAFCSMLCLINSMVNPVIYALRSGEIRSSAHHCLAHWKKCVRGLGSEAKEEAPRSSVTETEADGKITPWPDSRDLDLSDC
Sequence of human CB1 receptors (P21554 whole entry): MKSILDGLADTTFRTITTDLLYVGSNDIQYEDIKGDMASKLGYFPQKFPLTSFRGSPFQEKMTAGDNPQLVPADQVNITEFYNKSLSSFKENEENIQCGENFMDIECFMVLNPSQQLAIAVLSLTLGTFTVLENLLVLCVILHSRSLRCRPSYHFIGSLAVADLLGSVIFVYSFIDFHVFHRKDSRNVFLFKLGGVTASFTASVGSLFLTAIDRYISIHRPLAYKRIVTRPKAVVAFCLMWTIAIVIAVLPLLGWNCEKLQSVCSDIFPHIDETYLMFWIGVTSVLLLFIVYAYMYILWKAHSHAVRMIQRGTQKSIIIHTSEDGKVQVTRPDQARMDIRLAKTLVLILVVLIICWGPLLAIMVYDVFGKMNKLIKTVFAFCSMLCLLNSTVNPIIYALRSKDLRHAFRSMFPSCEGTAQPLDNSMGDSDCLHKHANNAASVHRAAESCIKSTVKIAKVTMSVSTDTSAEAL

In general, EC50 refers to the concentration at which the effect is half-maximal. On to `CC(C)(NC(=O)c1ccc(C2CCCC2)c(OCC2CC2)n1)c1nccs1` [Example 55, 5-Cyclopentyl-6-cyclopropylmethoxy-pyridine-2-carboxylic acid (1-methyl-1-thiazol-2-yl-ethyl)-amide], for which the EC50 on human CB1 receptors came out at 1390 nM; on human CB2 receptors it was 31.7 nM.
Taken in the same sequence, the figures for `CC(C)C[C@H](NC(=O)c1cccc(-c2cccc(Cl)c2)n1)c1nccs1` [Example 56, 6-(3-Chloro-phenyl)-pyridine-2-carboxylic acid ((S)-3-methyl-1-thiazol-2-yl-butyl)-amide] were more than 10000 nM and 173 nM.
For `Cc1nc([C@H](CC2CC2)NC(=O)c2ccc(C)c(OCC3CC3)n2)no1` [Example 57, 6-Cyclopropylmethoxy-5-methyl-pyridine-2-carboxylic acid [(S)-2-cyclopropyl-1-(5-methyl-[1,2,4]oxadiazol-3-yl)-ethyl]-amide], the EC50 was more than 10000 nM on human CB1 receptors and 319 nM on human CB2 receptors.
Taken in the same sequence, the figures for `CC(C)(NC(=O)c1ccc(Cl)c(-c2cccc(Cl)c2)n1)c1nccs1` [Example 58, 5-Chloro-6-(3-chloro-phenyl)-pyridine-2-carboxylic acid (1-methyl-1-thiazol-2-yl-ethyl)-amide] were 1110 nM and 104 nM.
Regarding `O=C(N[C@@H](CC1CC1)c1nccs1)c1ccc(C2CCOCC2)c(OCC2CC2)n1` [Example 59, 6-Cyclopropylmethoxy-5-(tetrahydro-pyran-4-yl)-pyridine-2-carboxylic acid ((S)-2-cyclopropyl-1-thiazol-2-yl-ethyl)-amide], the EC50 on human CB1 receptors is more than 10000 nM; at human CB2 receptors it was 32.5 nM.
For `O=C(N[C@@H](CC1CC1)c1nccs1)c1cccc(-c2cccc(Cl)c2)n1` [Example 60, 6-(3-Chloro-phenyl)-pyridine-2-carboxylic acid ((S)-2-cyclopropyl-1-thiazol-2-yl-ethyl)-amide], the EC50 on human CB1 receptors is more than 10000 nM; at human CB2 receptors it was 62.2 nM.
Turning to `CC(C)(NC(=O)c1ccc(N2CCCC2=O)c(OCC2CC2)n1)c1ncco1` [Example 61, 6-Cyclopropylmethoxy-5-(2-oxo-pyrrolidin-1-yl)-pyridine-2-carboxylic acid (1-methyl-1-oxazol-2-yl-ethyl)-amide], the concentration for a half-maximal effect (EC50) at human CB1 receptors was more than 10000 nM; on human CB2 receptors, 1480 nM.
Take `Cc1ccc(C(=O)NC(C)(C)c2nccs2)nc1OCC1CC1` [Example 62, 6-Cyclopropylmethoxy-5-methyl-pyridine-2-carboxylic acid (1-methyl-1-thiazol-2-yl-ethyl)-amide]: the values for the EC50 at human CB1 receptors and on human CB2 receptors were 561 nM and 11.5 nM, respectively.
For `CC(C)(NC(=O)c1ccc(N2CCCC2)c(OCC2CC2)n1)C1=NCCO1` [Example 63, 6-Cyclopropylmethoxy-5-pyrrolidin-1-yl-pyridine-2-carboxylic acid [1-(4,5-dihydro-oxazol-2-yl)-1-methyl-ethyl]-amide] the same measures were more than 10000 nM and 112 nM.
With `Cc1ccc(C(=O)N[C@@H](CC(C)C)c2nccs2)nc1OCC1CC1` [Example 64, 6-Cyclopropylmethoxy-5-methyl-pyridine-2-carboxylic acid ((S)-3-methyl-1-thiazol-2-yl-butyl)-amide], the EC50 came out at 1460 nM on human CB1 receptors and 18.9 nM on human CB2 receptors.
As to `Cc1ccc(C(=O)N[C@@H](CC2CC2)c2nccs2)nc1OCC1CC1` [Example 65, 6-Cyclopropylmethoxy-5-methyl-pyridine-2-carboxylic acid ((S)-2-cyclopropyl-1-thiazol-2-yl-ethyl)-amide], the EC50 at human CB1 receptors is more than 10000 nM; at human CB2 receptors, 33.8 nM.
In the case of `O=C(NN1CCCCC1)c1ccc(Cl)c(-c2cccc(Cl)c2)n1` [Example 66, 5-Chloro-6-(3-chloro-phenyl)-pyridine-2-carboxylic acid piperidin-1-ylamide], the EC50 at human CB1 receptors was more than 10000 nM; at human CB2 receptors, 216 nM.
Turning to `CNC(=O)C(C)(C)NC(=O)c1ccc(C2CC2)c(-c2cccc(Cl)c2)n1` [Example 67, 6-(3-Chloro-phenyl)-5-cyclopropyl-pyridine-2-carboxylic acid (1-methyl-1-methylcarbamoyl-ethyl)-amide], the EC50 on human CB1 receptors is more than 10000 nM; on human CB2 receptors it was 797 nM.
On to `O=C(NN1CCCCC1)c1cccc(OCC2CC2)n1` [Example 68, 6-Cyclopropylmethoxy-pyridine-2-carboxylic acid piperidin-1-ylamide], for which the EC50 is more than 10000 nM on human CB1 receptors and 429 nM on human CB2 receptors.
Take `CC(C)(NC(=O)c1ccc(N2CC(F)(F)C2)c(OCC2CC2)n1)c1nccs1` [Example 69, 6-Cyclopropylmethoxy-5-(3,3-difluoro-azetidin-1-yl)-pyridine-2-carboxylic acid (1-methyl-1-thiazol-2-yl-ethyl)-amide]: the figures for the EC50 on human CB1 receptors and at human CB2 receptors were 380 nM and 6 nM, respectively.
`CCC(CC)(NC(=O)c1ccc(C)c(-c2cccc(Cl)c2)n1)C(=O)NC` [Example 70, 6-(3-Chloro-phenyl)-5-methyl-pyridine-2-carboxylic acid (1-ethyl-1-methylcarbamoyl-propyl)-amide]: the EC50 at human CB1 receptors was more than 10000 nM; at human CB2 receptors it was 57.4 nM.
With `CCC(CC)(NC(=O)c1ccc(C2CC2)c(-c2cccc(Cl)c2)n1)C(=O)NC` [Example 71, 6-(3-Chloro-phenyl)-5-cyclopropyl-pyridine-2-carboxylic acid (1-ethyl-1-methylcarbamoyl-propyl)-amide], the results for the EC50 on human CB1 receptors and at human CB2 receptors were more than 10000 nM and 61.2 nM, respectively.
Regarding `CC(C)(NC(=O)c1cccc(-c2cccc(Cl)c2)n1)c1ncon1` [Example 72, 6-(3-Chloro-phenyl)-pyridine-2-carboxylic acid (1-methyl-1-[1,2,4]oxadiazol-3-yl-ethyl)-amide], the EC50 on human CB1 receptors was more than 10000 nM; at human CB2 receptors, 32.8 nM.
Taken in the same sequence, the figures for `CC(C)(NC(=O)c1ccc(C2CC2)c(OCC2CC2)n1)c1ncon1` [Example 73, 5-Cyclopropyl-6-cyclopropylmethoxy-pyridine-2-carboxylic acid (1-methyl-1-[1,2,4]oxadiazol-3-yl-ethyl)-amide] were 1320 nM and 40.7 nM.
For `CCC(CC)(NC(=O)c1ccc(C2CC2)c(OCC2CC2)n1)C(=O)NC` [Example 74, 5-Cyclopropyl-6-cyclopropylmethoxy-pyridine-2-carboxylic acid (1-ethyl-1-methylcarbamoyl-propyl)-amide], the EC50 was more than 10000 nM at human CB1 receptors and 8.9 nM at human CB2 receptors.
Consider `CC(C)(NC(=O)c1ccc(N2CC(O)C2)c(OCC2CC2)n1)c1nccs1` [Example 75, 6-Cyclopropylmethoxy-5-(3-hydroxy-azetidin-1-yl)-pyridine-2-carboxylic acid (1-methyl-1-thiazol-2-yl-ethyl)-amide], for which the concentration giving a half-maximal response (EC50) is more than 10000 nM on human CB1 receptors and 15.2 nM on human CB2 receptors.
`CCC(CC)(NC(=O)c1cccc(-c2ccc(Cl)cc2)n1)C(=O)NC` [Example 76, 6-(4-Chloro-phenyl)-pyridine-2-carboxylic acid (1-ethyl-1-methylcarbamoyl-propyl)-amide]: the EC50 at human CB1 receptors was more than 10000 nM; at human CB2 receptors, 185 nM.
Regarding `CC(C)(NC(=O)c1ccc(N2CCCS2(=O)=O)c(OCC2CC2)n1)c1nccs1` [Example 77, 6-(Cyclopropylmethoxy)-5-(1,1-dioxido-isothiazolidin-2-yl)-N-[2-(1,3-thiazol-2-yl)propan-2-yl]pyridine-2-carboxamide], the EC50 at human CB1 receptors is more than 10000 nM; on human CB2 receptors, 1400 nM.
